In one data set the test system is CFC-GEMM stem cells. Kind of data set: HALO 7-population hemotoxicology, CFC-GEMM. Format: cell-based. As to conditions: species not stated. As for the experimental part: (§1) To calculate the quantities of reagents required: • 1.
(§2) (See (iv) Adhesive Plate Covering Film above). • 3. […] Repeat this procedure a total of 4 times. Mixing is very important. • 4.
(§3) Luminescence is measured in relative luminescence units or RLU.

The next data set concerns HPP-SP stem cells. Kind of data set: HALO 7-population hemotoxicology, HPP-SP. The format is cell-based. The note with it: species not stated. As for the experimental part:
as §1, §2, §3

For data set [1], the system named is lymphopoietic cell populations. The text has this: (§4) Depending on the type and size of the HALO kit used, all of the culture components required, with the exception of the cells, are included. A typical HALO kit contains the 3 component mixes required to culture cells: • 1. Serum component mix (Mix 1): contains fetal bovine serum (FBS), bovine serum albumin (BSA), transferring and insulin. • 2. Methyl cellulose mix (Mix 2): contains methylcellulose and alph-thioglycerol. • 3. Growth factor mix (Mix 3): contains the type and number of growth factors depending on the cell population being stimulated. • 4. Target cells as prepared in step 1 above: different cell types are available from peripheral blood, bone marrow, or umbilical cord blood (humans) procured from human, non-human primate, dog, rat, or mouse. • Methyl cellulose provided: Methyl cellulose is a viscous, water soluble, semi-solid medium for immobilizing cells. The amount of methyl cellulose provided is for the number of 96-well plates determined by the kit. However, if dispensed carefully, there is sufficient methyl cellulose so that several smaller experiments can be performed using the plate(s) provided. • Dispensing individual component mixes and reagents: A repeater pipette may be used which uses a positive-displacement syringe is used to dispense the methyl cellulose mix. • Dispensing the master mix: Once all the component mixes have been added together, use a repeater pipette to dispense the master mix into individual wells. Using normal syringes with needles may result in inaccurate dispensing and greater variation between replicate wells. • Number of replicates performed: At least 4 replicates per culture point are preferred. Plate configuration: The configuration of the 96-well plate for an experiment is arbitrary. However, the number of replicates and the way in which the reagents required to measure luminescence are added, will determine the plate configuration. For example, if performing 4 or 8 replicates per culture point, we recommend configuring the plate in columns, that is, A1 to DI and EI to HI etc. for quadruplicate cultures and A1 to HI, A2 to 112 etc. for 8-replicate cultures are possible. If performing 6 or 12 replicates, we recommend configuring the plate, in rows, that is, A1-A6 and A7 to A12 for 6 replicates and A1-A12, BL to—813 for 12 replicates are possible. If performing column replicates, addition of the ATP releasing reagent and ATP luminescence-monitoring reagent can be performed using an 8-channel pipette from left to right across the plate. If performing row replicates, an 8- or 12-channel pipette can be used to dispense the reagents from the top to the bottom of the plate. To calculate the quantities of reagents required: • 1. Determine the-number of sample categories required for testing and the number of replicates for each sample. • 2. Multiply the number of sample categories by the number of replicates to obtain the number of wells to be used.
(§5) Before adding the target cells, ensure that a single cell suspension has been prepared. • 6. Mix the contents of the tube vigorously to obtain a homogenous master mix. • 7. To ensure that as little master mix as possible remains on the walls of the tube perform a quick spin in a centrifuge to 500 rpm and then let the centrifuge spin down. […] Dispense 100 μl of the reagent master mix into each of the replicate wells. This can be performed with a syringe and needle, but a repeater pipette is recommended for ease of use, reproducibility and to reduce variation. • 9. Transfer the culture plate to a 37 Celsius, fully humidified incubator with an atmosphere of 5% CO2. If possible, use an incubator gassed with 95% nitrogen in order to reduce the atmospheric oxygen concentration of 5% O2 since this helps increase the plating efficiency. • 10.
(§6) The addition of ATP releasing reagent and ATP luminescence-monitoring reagent is performed is the same manner as that for ATP. • 1.

For the next data set, the system named is BFU-E. Kind of data set: HALO 7-population hemotoxicology, BFU-E (erythropoietic lineage). The format is cell-based. As for the experimental part:
as §1, §2, §3

The subject of data set [2] is progenitor cell populations. The data set can be described thus: HALO 7-population hemotoxicology, progenitor cell populations (hematopoietic lineages). The format is cell-based. As for the experimental part:
as §1, §2, §3

Data set [3] relates to human PBMNCs cultured under BFU-E-stimulating conditions. Kind of data set: HALO cell proliferation (luminescence) of PBMNCs under BFU-E-stimulating conditions. Format: cell-based. As to conditions: days 3 and 7. As for the experimental part: Fresh human PBMNCs were cultured under BFU-E-stimulating conditions, together with 3 concentrations of DOX, namely 1 ng/ml (low), 10 ng/ml (medium) and 100 ng/ml (high) as per a typical HALO test procedure. Replicate plates were used so that the effects of DOX could be examined at 2 time points, namely days 3 and 7. At each time point, using the APOGLOW™ detection kit (Cambrex BioScience), ATP releasing reagent and ATP luminescence-monitoring reagent were added and the luminescence read immediately. A second luminescence reading was taken when the nadir ATP value occurred. At this point an ADP converting reagent (ADP-CR) was then added, which converts ADP to ATP and the luminescence measured when the conversion reached a plateau. From these 3 measurements ADP-.ATP ratio was determined. FIG. 15A and 15B show the mean RLU values for each of the DOX concentrations measured at the 2 time points. […] On day 3, the increase in ADP:ATP ratio is due to apoptosis of cells with low proliferative capacity.

Data set [4] has the same test system. Kind of data set: HALO apoptosis measurement (ADP:ATP ratio) of PBMNCs under BFU-E-stimulating conditions. Format: cell-based. As for the experimental part: Fresh human PBMNCs were cultured under BFU-E-stimulating conditions, together with 3 concentrations of DOX, namely 1 ng/ml (low), 10 ng/ml (medium) and 100 ng/ml (high) as per a typical HALO test procedure. Replicate plates were used so that the effects of DOX could be examined at 2 time points, namely days 3 and 7. At each time point, using the APOGLOW™ detection kit (Cambrex BioScience), ATP releasing reagent and ATP luminescence-monitoring reagent were added and the luminescence read immediately. A second luminescence reading was taken when the nadir ATP value occurred. At this point an ADP converting reagent (ADP-CR) was then added, which converts ADP to ATP and the luminescence measured when the conversion reached a plateau. From these 3 measurements ADP-.ATP ratio was determined. FIG. 15A and 15B show the mean RLU values for each of the DOX concentrations measured at the 2 time points. […]
Cell proliferation and apoptosis can actually be performed in a single read by performing HALO as described above, but then instead of measuring only ATP, adenosine diphosphate (ADP) is also measured, as shown in FIGS. 15 and 16. […]
In the HALO methods that form the basis of the kits of the present invention, ATP is released from the cells using ATP releasing reagent and a 15 min incubation. Thereafter, the ATP luminescence-monitoring reagent is added and the plates read immediately. […]

The test system of data set [5] is mouse hematopoietic lineages. The format is cell-based. As for the experimental part:
as §1, §2, §3

The next data set concerns mouse HPP-SP.
Text: as §4, §5, §6

Another data set has as its system human HPP-SP.
Text: as §4, §5, §6

Another data set has as its system mouse T-CFC. Kind of data set: HALO 7-population hemotoxicology, mouse T-CFC. Format: cell-based. As for the experimental part: as §1, §2, §3
A further data set deals with mouse CFC-GEMM.
Text: as §4, §5, §6

Another data set has as its system human CFC-GEMM.
Text: as §4, §5, §6

In data set [6] the test system is primitive and mature stem cell populations. Kind of data set: HALO 7-population hemotoxicology, primitive and mature stem cell populations. Format: cell-based. As to conditions: FIG. 17A. As for the experimental part:
as §1, §2, §3

The test system of another data set is mouse B-CFC. Kind of data set: HALO 7-population hemotoxicology, mouse B-CFC. Format: cell-based. As for the experimental part:
as §1, §2, §3

Data set [7] has as its system human hematopoietic lineages. Kind of data set: HALO 7-population hemotoxicology, human hematopoietic lineages. Format: cell-based. As for the experimental part:
as §1, §2, §3

Read-outs that look alike come from different tables or passages of the source.

As for `O=C(N[C@H](CO)[C@H](O)c1ccc([N+](=O)[O-])cc1)C(Cl)Cl` [chloramphenicol], in the data set with CFC-GEMM stem cells, the “effect on CFC-GEMM stem cells” value was “no effect”. For the same molecule, the “effect on HPP-SP stem cells” value in the data set on HPP-SP stem cells was “Stimulation”. In addition, the “effect on lymphopoietic cells / lymphopoietic lineages” value in data set [1] (T-CFC & B-CFC) was “stimulation”. For the same molecule, the “effect on erythroid elements” value in the data set on BFU-E (erythropoietic lineage) is “decrease”. Besides, in the data set on BFU-E (species not stated), the “effect on BFU-E” value is listed as “specifically inhibited”.
For the molecule `c1ccccc1` [benzene], in data set [2], the “effect on progenitor cells / hematopoietic lineages” value is listed as “hematopoietic suppression”. Also, the “effect on CFC-GEMM stem cells” value in the data set on CFC-GEMM stem cells is on record as “acts at the CFC-GEMM level”.
With `COc1cccc2c1C(=O)c1c(O)c3c(c(O)c1C2=O)C[C@@](O)(C(=O)CO)C[C@@H]3O[C@H]1C[C@H](N)[C@H](O)[C@H](C)O1` [DOX, doxorubicin], the “effect on mean RLU (luminescence)” value in data set [3] (1 ng/ml (low)) is listed as “little or no effect”; in data set [3] (10 ng/ml (medium)), “decrease the luminescence”; in [3] (100 ng/ml (high)), “decrease the luminescence”. In data set [4] (day 3), the “effect on ADP:ATP ratio” value is listed as “increase”. Besides, in [4] (day 7), the “apoptosis of BFU-E and immediate progeny” value is on record as “induced into apoptosis”.
On to `CN(C)C=O` [N,N-dimethylformamide], for which the “effect on mouse hematopoietic lineages” value in data set [5] was “effected”. In addition, in the data set with mouse HPP-SP (mouse), the “effect on mouse HPP-SP” value is reported as “stimulated”. Further, in the data set on human HPP-SP (human), the “effect on human HPP-SP” value was “effected”. The “effect on mouse T-CFC” value with mouse T-CFC is “stimulation”.
On to `[Na+].[Na+].[O]=[Cr](=[O])([O-])[O][Cr](=[O])(=[O])[O-]` [sodium dichromate], for which the “effect on progenitor cells / hematopoietic lineages” value in [2] is reported as “inhibition”. Also, in the data set on mouse CFC-GEMM, the “effect on mouse CFC-GEMM” value is recorded as “inhibited”. Besides, the “effect on lymphopoietic cells / lymphopoietic lineages” value in [1] is “inhibition”. In addition, in the data set with mouse HPP-SP, the “effect on mouse HPP-SP” value is listed as “inhibited”. Moreover, the “effect on human HPP-SP” value in the data set on human HPP-SP is “inhibited”. Further, the “effect on human CFC-GEMM” value with human CFC-GEMM is listed as “inhibited”.
With `CCn1cc(C(=O)O)c(=O)c2ccc(C)nc21` [naladixic acid], the “effect on progenitor cells / hematopoietic lineages” value in data set [2] was “No demonstrable effect”. Besides, the “effect on lymphopoietic cells / lymphopoietic lineages” value in data set [1] (T-CFC & B-CFC) is given as “No demonstrable effect”. Besides, in data set [6], the “effect on stem cells” value is “No demonstrable effect”.
As to `Nc1ccc(N)cc1` [p-phenelenediamine], in the data set on mouse B-CFC, the “effect on mouse B-CFC” value is reported as “decrease”. Besides, the “effect on mouse HPP-SP” value in the data set with mouse HPP-SP (mouse) is recorded as “decrease”. Moreover, the “effect on mouse T-CFC” value with mouse T-CFC is on record as “decrease”.
Consider `[Cl][Cd][Cl]` [cadmium chloride], for which the “effect on human hematopoietic lineages” value in data set [7] is given as “decrease”. In addition, in [5], the “effect on mouse hematopoietic lineages” value is on record as “decrease”. For the same molecule, the “effect on mouse CFC-GEMM” value in the data set on mouse CFC-GEMM (mouse) is reported as “no effect”. Further, the “effect on lymphopoietic cells / lymphopoietic lineages” value in [1] (T-CFC & B-CFC) is recorded as “decrease”. In the data set with mouse HPP-SP (mouse), the “effect on mouse HPP-SP” value was “decrease”. Moreover, the “effect on human HPP-SP” value in the data set with human HPP-SP (human) is on record as “decrease”. Also, the “effect on human CFC-GEMM” value with human CFC-GEMM (human) is reported as “decrease”.

Values taken from patent publication US20080248503A1, “Methods of Screening Compounds to Predict Toxicity and Residual Proliferative and Differentiation Capacity of the Lympho-Hematopoietic System” (priority 2005, published 2008).
